Reference: patent US10723726B2, “Solid forms of (Z)-4-(5-((3-benzyl-4-oxo-2-thioxothiazolidin-5-ylidene)methyl)furan-2-yl)benzoic acid” (GB006, INC., priority 2015, dated 2020)
Counter-ions that a name gives are not always drawn.

Experiments:
[1] = in vivo; conditions: male
Protocol: Test system: Healthy Beagle dog weighing 10-12 kg (age 10 months), males were used for the study. Crossover design was adopted for the experiments wherein 03 dogs were used in the study for oral and intravenous administration. The animals were housed stainless steel cage provided with a hopper to hold pellet feed and a separate water hopper. Temperature and humidity was maintained at 23±5° C. and 30-70%, respectively. The illumination was controlled to give a sequence of 12 h light and 12 h dark cycle. All the animals were adapted to the experimental conditions for at least 5 days prior to dosing. All animals were provided with Pedigree™ standard pellet feed, except for 10 to 12 h before treatment and 4 h after the drug administration. Water was provided ad libidum.
Formulation and drug administration: 251.02 mg of test item was transferred in to a clean mortar. Test item was ground uniformly using pestle. 1.235 ml of Tween 80 was added and the material was mixed. A small quantity of 0.5% (w/v) methylcellulose in water was added and the mixture was triturated. 0.5% methyl cellulose was added to make a final volume of 190 ml. Finally the above formulation was transferred to a pre-labeled beaker and sonicated for five minutes. Suspension was dosed under stirring conditions by placing on a magnetic stirrer.
The dose formulation of LA-1.choline was administered by oral gavage using a feeding gavage tube. The required volume of dose formulation (5 ml/kg body weight) was draw up into a graduated syringe. The dog was properly restrained with the help of another person so as to restrict movement. The feeding tube was inserted slowly in the mouth through the space between cheek and the teeth towards esophagus to the stomach. Proper placement of tube was confirmed by dipping the outside end of tube in a container with water and looking for air bubbles. Absence of air bubbles confirmed the location of tube in the stomach. The required dose volume of LA-1.choline suspension was slowly administered through the feeding tube. Air was pushed through at the end to ensure empting of the tube. The tube was slowly taken out and discarded.
Intravenous drug formulation: Accurately weighed 27.49 mg of test item was transferred in to the clean tube. A volume of 0.417 mL DMSO was added and mixed until the test dissolves completely. A volume 0.417 mL of Solutol:alcohol (1:1, v/v) was added and mixed, to this, 7.496 mL of normal saline was added and vortexed. Finally, the above formulation was used for dosing.
The required volume of dose formulation (0.2 ml/kg body weight) of LA-1.choline was drawn up into a graduated syringe. Air bubbles were removed from the syringe before dosing. The dog was restrained in the standing position. The upper portion of injection site of cephalic vein was compressed and the needle of the butterfly vein catheter sized 22G was slowly inserted in the vein. Once blood reached the end of the catheter tube, it was connected to the syringe. The dose formulation was immediately injected slowly. At the end of administration, approximately 0.5 mL of normal saline was injected via catheter to ensure the required dose volume was administrated. Last, the needle was removed.
Sample collection: Post-dosing ˜1.5 ml of blood sample from each dog for the following time points 0.25, 0.5, 1, 1.5, 2, 3, 5, 8, 10 and 24 h was collected from the jugular vein into K2EDTA containing pre-labeled vacutainer centrifuge tubes. Plasma was obtained by centrifuging blood samples at 2500 g for 10 min. under refrigeration (2-4° C.) within 0.5 h of sampling. The obtained plasma samples were transferred into pre-labeled microcentrifuge tubes (approximately ˜300 μl) and stored at or below −70±10° C. The sample labels include details such as study number, test item code and dose group and/or day of sampling, animal number, time point.
Extraction procedure: The plasma separated from the whole blood was used for bio-analysis.

[2] = tested on: murine melanoma B16-F10 tumors; experiment: Murine melanoma B16F10 allograft efficacy (Example 20); format: in vivo, C57BL/6 mice
[3] = tested on: leukocytes; conditions: mice; cited from earlier work
[4] = Beagle, dog, iv, 0.5 mg/kg, Plasma concentration
[5] = Beagle, dog, po, 5 mg/kg, Mean conc.
[6] = Beagle, dog, po, 5 mg/kg, Plasma concentration
[7] = beagle, dog, iv, 0.5 mg/kg, Mean conc.
[8] = beagle, dog, iv, 0.5 mg/kg, Plasma concentration
[9] = beagle, dog, po, 5 mg/kg, Plasma concentration

Structure (SMILES): O=C(O)c1ccc(-c2ccc(/C=C3\SC(=S)N(Cc4ccccc4)C3=O)o2)cc1 [LA1 choline salt]
- concentration at 0.25 h [1, 4]: 723 ng/mL
- concentration at 0.5 h [1, 4]: 501 ng/mL
- concentration at 1 h [1, 4]: 397 ng/mL
- concentration at 2 h [1, 4]: 203 ng/mL
- concentration at 3 h [1, 4]: 265 ng/mL
- concentration at 5 h [1, 4]: 67.7 ng/mL
- concentration at 8 h [1, 4]: 44.4 ng/mL
- concentration at 10 h [1, 4]: 19.8 ng/mL
- Plasma concentration ([1]; Beagle, dog, po, 5 mg/kg, 0.5 h): 2776 ng/mL
- Plasma concentration ([1]; Beagle, dog, po, 5 mg/kg, 1 h): 2706 ng/mL
- Plasma concentration ([1]; Beagle, dog, po, 5 mg/kg, 2 h): 2055 ng/mL
- Plasma concentration ([1]; Beagle, dog, po, 5 mg/kg, 3 h): 2510 ng/mL
- Plasma concentration ([1]; Beagle, dog, po, 5 mg/kg, 5 h): 429 ng/mL
- concentration at 0.25 h [1, 5]: 1100 ng/mL
- concentration at 0.5 h [1, 5]: 1880 ng/mL
- concentration at 1 h [1, 5]: 1890 ng/mL
- concentration at 2 h [1, 5]: 1520 ng/mL
- concentration at 3 h [1, 5]: 1960 ng/mL
- concentration at 5 h [1, 5]: 414 ng/mL
- concentration at 8 h [1, 5]: 150 ng/mL
- concentration at 10 h [1, 5]: 128 ng/mL
- concentration at 24 h [1, 5]: 16.9 ng/mL
- concentration at 0.5 h [1, 6]: 1870 ng/mL
- concentration at 1 h [1, 6]: 1660 ng/mL
- concentration at 2 h [1, 6]: 1480 ng/mL
- concentration at 3 h [1, 6]: 1810 ng/mL
- concentration at 5 h [1, 6]: 442 ng/mL
- Dog Cl ([1]; beagle): 3.9 mL/min/kg
- bioavailability ([1]; beagle, dog, Absolute oral bioavailability): 50.6%
- clearance ([1]; beagle, dog, Dog Cl (ml/min/kg)): 3.92 mL/min/kg
- bioavailability ([1]; beagle, dog, Dog F % (absolute oral bioavailability)): 43.4%
- AUC0-t ([1]; beagle, dog, iv, 0.5 mg/kg): 1330 ng·h/mL
- AUC(0-inf) ([1]; beagle, dog, iv, 0.5 mg/kg): 1350 ng·h/mL
- Cmax ([1]; beagle, dog, iv, 0.5 mg/kg): 2040 ng/mL
- Vd ([1]; beagle, dog, iv, 0.5 mg/kg): 0.00072 L
- Plasma concentration ([1]; beagle, dog, iv, 0.5 mg/kg, 0.25 h): 843 ng/mL
- Plasma concentration ([1]; beagle, dog, iv, 0.5 mg/kg, 0.5 h): 548 ng/mL
- Plasma concentration ([1]; beagle, dog, iv, 0.5 mg/kg, 1 h): 405 ng/mL
- clearance ([1]; beagle, dog, iv, 0.5 mg/kg, Cl): 0.0065 mL/min
- half-life ([1]; beagle, dog, iv, 0.5 mg/kg, Half life): 129 min
- concentration at 0.25 h [1, 7]: 851 ng/mL
- concentration at 0.5 h [1, 7]: 641 ng/mL
- concentration at 1 h [1, 7]: 508 ng/mL
- concentration at 2 h [1, 7]: 297 ng/mL
- concentration at 3 h [1, 7]: 421 ng/mL
- concentration at 5 h [1, 7]: 109 ng/mL
- concentration at 8 h [1, 7]: 44.1 ng/mL
- concentration at 10 h [1, 7]: 27.6 ng/mL
- concentration at 0.25 h [1, 8]: 987 ng/mL
- concentration at 0.5 h [1, 8]: 874 ng/mL
- concentration at 1 h [1, 8]: 721 ng/mL
- concentration at 24 h [1, 8]: 15.8 ng/mL
- AUC0-t ([1]; beagle, dog, po, 3 mg/kg): 2570 ng·h/mL
- AUC(0-inf) ([1]; beagle, dog, po, 3 mg/kg): 2690 ng·h/mL
- Cmax ([1]; beagle, dog, po, 3 mg/kg): 685 ng/mL
- Tmax ([1]; beagle, dog, po, 3 mg/kg): 4 h
- half-life ([1]; beagle, dog, po, 3 mg/kg, Half life): 127 min
- Vdss ([1]; beagle, dog, po, 5 mg/kg): 0.83 L/kg
- peak concentration ([1]; beagle, dog, po, 5 mg/kg): 2068 ng/mL
- t1/2 (hr), oral half-life ([1]; beagle, dog, po, 5 mg/kg): 3.41 h
- time of peak concentration post dose ([1]; beagle, dog, po, 5 mg/kg): 1.5 h
- concentration at 0.5 h [1, 9]: 999 ng/mL
- concentration at 1 h [1, 9]: 1310 ng/mL
- concentration at 2 h [1, 9]: 1020 ng/mL
- concentration at 3 h [1, 9]: 1560 ng/mL
- concentration at 5 h [1, 9]: 370 ng/mL
- concentration at 8 h [1, 9]: 107 ng/mL
- concentration at 10 h [1, 9]: 158 ng/mL
- half-life ([1]; beagle, dog, po, 5 mg/kg, t1/2 (hr), oral half-life): ~204 min
- growth inhibition of B16-F10 tumors as compared to vehicle control ([2]; 3-100 mg/kg orally): 43-68%
- tumor volume ([2]; 3-100 mg/kg, FIG. 24): decreased tumor volume in a dose dependent manner

Structure (SMILES): O=C(O)c1ccc(-c2ccc(/C=C3\SC(=S)N(Cc4ccccc4)C3=O)o2)cc1 [LA1, (Z)-4-(5-((3-benzyl-4-oxo-2-thioxothiazolidin-5-ylidene)methyl)furan-2-yl)benzoic acid]
- recruitment of leukocytes during acute peritonitis [3]: reduce recruitment of leukocytes
